How the values were obtained:
[1] = test system: rice; assay: Test D flooded paddy test; format: in vivo, Oryza sativa; conditions: 250 g ai/ha, applied to paddy water, visual rating after 13 to 14 days, scale 0 to 100 (0 no effect, 100 complete control)
How it was run: (§1)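 2-leaf plants; flood 3 cm above soil; compound dosed into paddy water; greenhouse 13–14 d; visual rating vs controls, 0–100 (100 = complete control); dash = not tested.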

[2] = test system: barnyardgrass; assay: Test C postemergence; format: in vivo, Echinochloa crusgalli; conditions: 10 days
How it was run: (§2)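 Greenhouse herbicide screen, 10-day duration. Test chemicals in solvent/surfactant blend were sprayed onto soil at sowing (pre) or onto 2–10 cm seedlings at one to two leaves (post); injury scored visually against controls, 0 no effect to 100 complete control.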

[3] = test system: blackgrass; assay: Test C preemergence; format: in vivo, Alopecurus myosuroides; conditions: for Plant response rating, Blackgrass: Preemergence; for Blackgrass plant response rating: preemergence
How it was run: as §2

[4] = test system: oat, wild; assay: Test C postemergence; format: in vivo, Avena fatua; conditions: 10 days
How it was run: as §2

[5] = test system: barnyardgrass; assay: Test D flooded paddy test; format: in vivo, Echinochloa crus-galli; conditions: 250 g ai/ha, applied to paddy water, visual rating after 13 to 14 days, scale 0 to 100 (0 no effect, 100 complete control)
How it was run: as §1

[6] = test system: barnyardgrass; assay: Test C preemergence; format: in vivo, Echinochloa crusgalli; conditions: for Plant response rating, Barnyardgrass: Preemergence; for Barnyardgrass plant response rating: preemergence
How it was run: as §2

[7] = test system: oat, wild; assay: Test C preemergence; format: in vivo, Avena fatua; conditions: for Plant response rating, Oat, Wild: Preemergence; for Oat, Wild plant response rating: preemergence
How it was run: as §2

[8] = test system: ryegrass, Italian; assay: Test C postemergence; format: in vivo, Lolium multiflorum; conditions: 10 days
How it was run: as §2

[9] = test system: soybean; assay: Test C preemergence; format: in vivo, Glycine max; conditions: for Plant response rating, Soybean: Preemergence; for Soybean plant response rating: preemergence
How it was run: as §2

[10] = test system: galium; assay: Test C postemergence; format: in vivo, Galium aparine; conditions: 10 days
How it was run: as §2

[11] = test system: ryegrass, Italian; assay: Test C preemergence; format: in vivo, Lolium multiflorum; conditions: for Plant response rating, Ryegrass, Italian: Preemergence; for Ryegrass, Italian plant response rating: preemergence
How it was run: as §2

[12] = test system: ducksalad; assay: Test D flooded paddy test; format: in vivo, Heteranthera limosa; conditions: 250 g ai/ha, applied to paddy water, visual rating after 13 to 14 days, scale 0 to 100 (0 no effect, 100 complete control)
How it was run: as §1

[13] = test system: wheat; assay: Test C preemergence; format: in vivo, Triticum aestivum; conditions: for Plant response rating, Wheat: Preemergence; for Wheat plant response rating: preemergence
How it was run: as §2

[14] = test system: pigweed, palmer; assay: Test C preemergence; format: in vivo, Amaranthus palmeri; conditions: for Plant response rating, Pigweed, Palmer: Preemergence; for Pigweed, Palmer plant response rating: preemergence
How it was run: as §2

[15] = test system: ragweed; assay: Test C preemergence; format: in vivo, Ambrosia artemisiifolia; conditions: for Plant response rating, Ragweed: Preemergence; for Ragweed plant response rating: preemergence
How it was run: as §2

[16] = test system: ragweed; assay: Test C postemergence; format: in vivo, Ambrosia artemisiifolia; conditions: 10 days
How it was run: as §2

[17] = test system: green foxtail; assay: Test C preemergence; format: in vivo, Setaria viridis; conditions: for Plant response rating, Foxtail, Green: Preemergence; for Foxtail, Green plant response rating: preemergence
How it was run: as §2

[18] = test system: kochia; assay: Test C postemergence; format: in vivo, Bassia scoparia; conditions: 10 days
How it was run: as §2

[19] = test system: soybean; assay: Test C postemergence; format: in vivo, Glycine max; conditions: 10 days
How it was run: as §2

[20] = test system: pigweed, palmer; assay: Test C postemergence; format: in vivo, Amaranthus palmeri; conditions: 10 days
How it was run: as §2

[21] = test system: corn; assay: Test C preemergence; format: in vivo, Zea mays; conditions: for Plant response rating, Corn: Preemergence; for Corn plant response rating: preemergence
How it was run: as §2

[22] = test system: green foxtail; assay: Test C postemergence; format: in vivo, Setaria viridis; conditions: 10 days
How it was run: as §2

[23] = test system: horseweed; assay: Test C postemergence; format: in vivo, Erigeron canadensis; conditions: 10 days
How it was run: as §2

[24] = test system: wheat; assay: Test C postemergence; format: in vivo, Triticum aestivum; conditions: 10 days
How it was run: as §2

[25] = test system: blackgrass; assay: Test C postemergence; format: in vivo, Alopecurus myosuroides; conditions: 10 days
How it was run: as §2

[26] = test system: corn; assay: Test C postemergence; format: in vivo, Zea mays; conditions: 10 days
How it was run: as §2

[27] = test system: sedge, umbrella; assay: Test D flooded paddy test; format: in vivo, Cyperus difformis; conditions: 250 g ai/ha, applied to paddy water, visual rating after 13 to 14 days, scale 0 to 100 (0 no effect, 100 complete control)
How it was run: as §1

[28] = test system: kochia; assay: Test C preemergence; format: in vivo, Bassia scoparia; conditions: for Plant response rating, Kochia: Preemergence; for Kochia plant response rating: preemergence
How it was run: as §2

[29] = 125 g ai/ha, postemergence, 0 to 100 scale, 0 no effect, 100 complete control
[30] = Postemergence, 500 g ai/ha, visual 0 to 100 scale (0 no effect, 100 complete control)
[31] = 500 g ai/ha, visual rating after 10 days, 0 to 100 scale (0 no effect, 100 complete control)
[32] = Test C, 125 g ai/ha, 0 to 100 scale (0 no effect, 100 complete control)
[33] = 500 g ai/ha, postemergence, 0 to 100 scale (0 no effect, 100 complete control)
[34] = Postemergence, 125 g ai/ha, 0 to 100 scale (0 no effect, 100 complete control)
[35] = 500 g ai/ha, 0 to 100 scale (0 no effect, 100 complete control)
[36] = 125 g ai/ha, 0 to 100 scale, 0 no effect, 100 complete control

SMILES: Cc1cccc2c1O[C@@H](C)CN2C(=O)c1cccc(-n2cnc(C#N)c2)c1 [Compound 233]
- Plant response rating, Rice (Flood) [1]: 0
- Plant response rating, Barnyardgrass [2, 29]: 10
- Plant response rating, Barnyardgrass [2, 30]: 20
- Plant response rating, Blackgrass [3, 31]: 30
- Blackgrass plant response rating [3, 32]: 10
- Plant response rating, Oat, Wild [4, 29]: 0
- Plant response rating, Oat, Wild [4, 30]: 20
- Plant response rating, Barnyardgrass (Flood) [5]: 0
- Plant response rating, Barnyardgrass [6, 31]: 60
- Barnyardgrass plant response rating [6, 32]: 0
- Plant response rating, Oat, Wild [7, 31]: 0
- Oat, Wild plant response rating [7, 32]: 0
- Plant response rating, Ryegrass, Italian [8, 29]: 0
- Plant response rating, Ryegrass, Italian [8, 30]: 60
- Plant response rating, Soybean [9, 31]: 10
- Soybean plant response rating [9, 32]: 0
- Plant response rating, Galium [10, 29]: 50
- Plant response rating, Ryegrass, Italian [11, 31]: 60
- Ryegrass, Italian plant response rating [11, 32]: 10
- Plant response rating, Ducksalad (Flood) [12]: 0
- Plant response rating, Wheat [13, 31]: 0
- Wheat plant response rating [13, 32]: 0
- Plant response rating, Pigweed, Palmer [14, 31]: 0
- Pigweed, Palmer plant response rating [14, 32]: 0
- Plant response rating, Ragweed [15, 31]: 70
- Ragweed plant response rating [15, 32]: 0
- Plant response rating, Ragweed [16, 29]: 0
- Plant response rating, Ragweed [16, 30]: 20
- Plant response rating, Foxtail, Green [17, 31]: 80
- Foxtail, Green plant response rating [17, 32]: 0
- Plant response rating, Kochia [18, 29]: 0
- Plant response rating, Kochia [18, 30]: 10
- Plant response rating, Soybean [19, 29]: 70
- Plant response rating, Soybean [19, 30]: 80
- Plant response rating, Pigweed, Palmer [20, 29]: 0
- Plant response rating, Pigweed, Palmer [20, 30]: 10
- Plant response rating, Corn [21, 31]: 20
- Corn plant response rating [21, 32]: 0
- Plant response rating, Foxtail, Green [22, 29]: 20
- Plant response rating, Foxtail, Green [22, 30]: 20
- Plant response rating, Horseweed [23, 29]: 0
- Plant response rating, Horseweed [23, 30]: 0
- Plant response rating, Wheat [24, 29]: 10
- Plant response rating, Wheat [24, 30]: 10
- Plant response rating, Blackgrass [25, 29]: 0
- Plant response rating, Blackgrass [25, 30]: 40
- Plant response rating, Corn [26, 29]: 0
- Plant response rating, Corn [26, 30]: 20
- Plant response rating, Sedge, Umbrella (Flood) [27]: 0
- Plant response rating, Kochia [28, 31]: 0
- Kochia plant response rating [28, 32]: 0

SMILES: CC(C)c1ncn(-c2ccc(OS(C)(=O)=O)c(C(=O)N3C[C@H](C)Oc4c(Cl)cccc43)c2)n1 [Compound 338]
- Plant response rating, Rice (Flood) [1]: 10
- Plant response rating, Barnyardgrass [2, 33]: 70
- Plant response rating, Barnyardgrass [2, 34]: 30
- Blackgrass plant response rating [3, 35]: 80
- Plant response rating, Blackgrass [3, 36]: 20
- Plant response rating, Oat, Wild [4, 33]: 20
- Plant response rating, Oat, Wild [4, 34]: 20
- Plant response rating, Barnyardgrass (Flood) [5]: 10
- Barnyardgrass plant response rating [6, 35]: 100
- Plant response rating, Barnyardgrass [6, 36]: 60
- Oat, Wild plant response rating [7, 35]: 50
- Plant response rating, Oat, Wild [7, 36]: 30
- Plant response rating, Ryegrass, Italian [8, 33]: 80
- Plant response rating, Ryegrass, Italian [8, 34]: 70
- Soybean plant response rating [9, 35]: 80
- Plant response rating, Soybean [9, 36]: 30
- Plant response rating, Galium [10, 33]: 100
- Plant response rating, Galium [10, 34]: 100
- Ryegrass, Italian plant response rating [11, 35]: 100
- Plant response rating, Ryegrass, Italian [11, 36]: 90
- Plant response rating, Ducksalad (Flood) [12]: 40
- Wheat plant response rating [13, 35]: 20
- Plant response rating, Wheat [13, 36]: 0
- Pigweed, Palmer plant response rating [14, 35]: 100
- Plant response rating, Pigweed, Palmer [14, 36]: 100
- Ragweed plant response rating [15, 35]: 0
- Plant response rating, Ragweed [15, 36]: 0
- Plant response rating, Ragweed [16, 33]: 40
- Plant response rating, Ragweed [16, 34]: 30
- Foxtail, Green plant response rating [17, 35]: 100
- Plant response rating, Foxtail, Green [17, 36]: 90
- Plant response rating, Kochia [18, 33]: 100
- Plant response rating, Kochia [18, 34]: 90
- Plant response rating, Soybean [19, 33]: 100
- Plant response rating, Soybean [19, 34]: 100
- Plant response rating, Pigweed, Palmer [20, 33]: 100
- Plant response rating, Pigweed, Palmer [20, 34]: 90
- Corn plant response rating [21, 35]: 50
- Plant response rating, Corn [21, 36]: 10
- Plant response rating, Foxtail, Green [22, 33]: 70
- Plant response rating, Foxtail, Green [22, 34]: 30
- Plant response rating, Horseweed [23, 33]: 20
- Plant response rating, Horseweed [23, 34]: 10
- Plant response rating, Wheat [24, 33]: 40
- Plant response rating, Wheat [24, 34]: 20
- Plant response rating, Blackgrass [25, 33]: 70
- Plant response rating, Blackgrass [25, 34]: 40
- Plant response rating, Corn [26, 33]: 80
- Plant response rating, Corn [26, 34]: 80
- Plant response rating, Sedge, Umbrella (Flood) [27]: 45
- Kochia plant response rating [28, 35]: 100
- Plant response rating, Kochia [28, 36]: 60
